Patent publication EP0139891A2, “Pharmaceutical compositions with antibiotic-immunostimulating activity” (B.T.B. INDUSTRIA CHIMICA S.p.A., priority 1983, dated 1985)
In brackets after ≈: the same amount, converted by molar mass. Where a name gives a salt, the structure may show the parent alone.

Columns and labels:
pneumococ bacteria = assay: Antibacterial in vivo activity in infected rats; set-up: species or system Sprague-Dawley rats; conditions: rats infected with LD100 of pneumococ bacteria; orally every twelve hours 25 mg/kg as erythromycin base; 8 days observation
Experimental: 60 Sprague-Dawley rats of both sexes (3 lots of 20 animals each) were infected with an LD100 of pneumococ bacteria. Said LD100 was determined in 10^6C.F.U. and was given to the rats through tracheal cannula. The death of the animals occurred at the 3rd-4th day. The observation period lasted 8 days.
The obtained results are reported in the fol lowing Table I and are expressed as per cent mortalities over the controls.
Both the dead and the survived animals underwent a hystological examination of the main organs, namely lungs, liver, kidneys, heart and brain.

[1] = Acute toxicity after oral administration; conditions: in vivo, rat
K562 = assay: Natural killer activity test on lymphocytes of treated patients; format: in vivo; conditions: same patients and doses, percentage of aspecific lysis of K562
Experimental: (§1) of F.F.001 was investigated in a clinical research on patients affected by chronic bronchial infection. The immunostimulating action was determined through the monitorage of the phagocytary and NK cells activity.
This test consists in the determination of the percentage of aspecific lysis of a human tumoral target, K562, mediated by circulating lymphocytes.
The lymphocytes were isolated by centrifuging heparinized blood at a 1:1 dilution with physiologic solution or with a solution of "Hanks" salts of "Ficol".
After 30 min. of centrifugation at 1000 r.p.m. a band of stratified leucocytes was obtained over the "Ficol" level.
At the same time the K562 were labelled with ^51Cr by adding the radioisotope solution to a suspension containing […] in 0.5 ml of colture medium.
After 45 min. of incubation at 37 degrees C the cells were washed three times with a solution of "Hanks" salts.
The labelled cells were then incubated with leucocytes at 37 degrees C at various ratios for 4 h, after which the percentage of […] release was determined in the supernatant and assumed to be directly proportional to the K562 cell lysis mediated by leucocytes.
(§2) In the groups 1), 3), 4) and 5) the dose of erythromycin was always 1 gram; in the groups 2), 3), 4) and 5) the corresponding dose of inosine was 182 mg.

St Albus ATCC 12228 = assay: Phagocytosis test on phagocytes of treated patients; format: in vivo; conditions: patients with chronical bronchitis, erythromycin 1 gram and/or inosine 182 mg
Experimental: as §1
2 Ml of a phagocytes suspension (10^6 phagocy- tes/ml) was mixed up in a sterile test tube with 2 ml of St Albus ATCC 12228 (10^6 microorganisms/ ml) suspended in Gelatine "Hanks-solution" with 10% AB serum and 0.4 ml of AB serum.
The mixture was then incubated at 37 degrees C under continuous stirring. 2 Ml of St Albus ATCC 12228 suspended in gelatine "Hanks-solution" with 10% of AB serum (10^6 microorganisms/ml) were mixed up in another sterile test tube with 2.04 ml of Gelatine "Hanks-solution" and incubated under the same conditions described above.
At regular time intervals (0-30 min.-60 min.-90 min.) aliquots of the suspension corresponding to 0.5 ml were added to 1.5 Ml of Gelatine "Hanks-so lution" previously cooled to 4 degrees in order to stop the phagocytosis process.
The samples were then centrifuged for 4 min. at 110 r.p.m. in order to obtain the complete sedimen tation of the leucocytes, while the upper phase consisted of a suspension containing the bacteria (supernatant).
The supernatant liquid was then diluted with a
sterile saline solution (Bacto-haemogglutination Soerensen buffer) at a 1:10 ratio, in order to be sure that at least the last dilution contained a number of living bacteria ranging between 100 and 1000/ml.
Aliquots of 0.1 ml of bacterial suspension were then taken from the […] dilutions and both of them were pipetted on a plate containing Diagnostic Sensitive Test Agar (Oxoid) and immedia tely distributed on the whole surface with a sterile spatula.
The plates were incubated at 37 degrees C for 24 h and the number of colonies was then determined with a colony counter.
The same procedure was followed after having withdrawn aliquots of 0.5 ml of bacterial suspension from the test tube.
Phagocytosis, as a function of time, was determined in vitro and can be expressed as the reduction percent of the number of living bacteria deter mined at the beginning of the experiment (No). [formula]
F(t) is the phagocytosis index after t min., while Nt is the number of living bacteria after t min.
as §2

S. aureus = assay: Antibacterial in vitro activity (M.I.C.); format: cell-based; conditions: micrograms of substance per ml of bacterial suspension
Experimental: (§3) The M.I.C.s were determined against three pathogenic bacterial strains, and are expressed as micrograms of substance per ml of bacterial suspension […].

H. influenzae = assay: Antibacterial in vitro activity (M.I.C.); format: cell-based; conditions: micrograms of substance per ml of bacterial suspension
Experimental: as §3

S. pyogenes = assay: Antibacterial in vitro activity (M.I.C.); format: cell-based; conditions: micrograms of substance per ml of bacterial suspension
Experimental: as §3

[2] = 0 hours (moment of administration)
[3] = 0 hours (moment of administration), reduction percent of living bacteria

Row | Molecule | Mortality (pneumococ bacteria) [%] | LD50 [1] [mg/kg] | NK-test (K562; [2]) | NK-test (K562; 2 hours after administration) | NK-test (K562; 4 hours after administration) | NK-test (K562; 6 hours after administration) | NK-test (K562; 8 hours after administration) | NK-test (K562; 24 hours after administration) | phagocytosis (St Albus ATCC 12228; [3]) | phagocytosis (St Albus ATCC 12228; 2 hours after administration) | phagocytosis (St Albus ATCC 12228; 4 hours after administration) | phagocytosis (St Albus ATCC 12228; 6 hours after administration) | phagocytosis (St Albus ATCC 12228; 8 hours after administration) | phagocytosis (St Albus ATCC 12228; 24 hours after administration) | minimum inhibiting concentration (M.I.C.) (S. aureus) | minimum inhibiting concentration (M.I.C.) (H. influenzae) | minimum inhibiting concentration (M.I.C.) (S. pyogenes) | MIC (S. aureus; Staphylococcus aureus, read-out: minimum inhibiting concentration (M.I.C.)) [µg/mL] | MIC (H. influenzae; Haemophilus influenzae, read-out: minimum inhibiting concentration (M.I.C.)) [µg/mL] | MIC (S. pyogenes; Streptococcus pyogenes, read-out: minimum inhibiting concentration (M.I.C.)) [µg/mL]
1 | CC[C@H]1OC(=O)[C@H](C)[C@@H](O[C@H]2C[C@@](C)(OC)[C@@H](O)[C@H](C)O2)[C@H](C)[C@@H](O[C@@H]2O[C@H](C)C[C@H](N(C)C)[C@H]2O)[C@](C)(O)C[C@@H](C)C(=O)[C@H](C)[C@@H](O)[C@]1(C)O [Erythromycin, erythromycin] | 5 | > 6000 | 7.4-23.0 | 7.4-23.0 | 7.4-23.0 | 7.4-23.0 | 45.3-67.8 | 7.4-23.0 | 8-24 | 8-24 | 8-24 | 8-24 | 31-60 | 8-24 | – | – | – | – | – | –
2 | salt of erythromycin propionate with inosine-5-phosphoric acid in the molar ratio 2:1 [F.F.001] | 0 | – | 4.9-21.7 | 45.8-68 | 47.3-70.1 | 48.0-71.1 | 50.2-74.2 | 4.9-21.7 | 5-20 | 16-62 | 16-62 | 16-62 | 34-82 | 5-20 | 0.31 ℓ/ml | 0.31 ℓ/ml | 0.036 ℓ/ml | – | – | –
3 | CCOC(=O)CCC(=O)O[C@H]1[C@H](O[C@@H]2[C@@H](C)[C@H](O[C@H]3C[C@@](C)(OC)[C@@H](O)[C@H](C)O3)[C@@H](C)C(=O)O[C@H](CC)[C@@](C)(O)[C@H](O)[C@@H](C)C(=O)[C@H](C)C[C@@]2(C)O)O[C@H](C)C[C@@H]1N(C)C [F.F.002, salt of erythromycin ethylsuccinate with inosine-5-phosphoric acid in the molar ratio 2:1] | – | – | 5.2-17.8 | 44.9-68.2 | 46.1-69.8 | 50.1-71.8 | 52.9-76.1 | 5.2-17.8 | 5-20 | 16-62 | 16-62 | 16-62 | 34-82 | 5-20 | – | – | – | – | – | –
4 | CCC(=O)O[C@H]1[C@H](O[C@@H]2[C@@H](C)[C@H](O[C@H]3C[C@@](C)(OC)[C@@H](O)[C@H](C)O3)[C@@H](C)C(=O)O[C@H](CC)[C@@](C)(O)[C@H](O)[C@@H](C)C(=O)[C@H](C)C[C@@]2(C)O)O[C@H](C)C[C@@H]1N(C)C [Er. prop., erythromycin propionate] | 5 | – | – | – | – | – | – | – | – | – | – | – | – | – | – | – | – | 0.35 (≈ 0.443 µM) | 0.31 (≈ 0.392 µM) | 0.04 (≈ 0.0506 µM)
5 | OC[C@H]1O[C@@H](n2cnc3c(O)ncnc32)[C@H](O)[C@@H]1O [Inosine, inosine] | – | – | 4.5-19.0 | 10.0-56.5 | 4.5-19.0 | 4.5-19.0 | 4.5-19.0 | 4.5-19.0 | 5-19 | 10-50 | 5-19 | 5-19 | 5-19 | 5-19 | – | – | – | – | – | –
